Where two headings read alike, the source gives them in different places.
Assays:
cleaved caspase-3 = assay: Western blot, injured cortex; type: in vivo, mice; details: for decrease of cleaved caspase-3 level versus vehicle: 20 mg/kg ip 10 min after CCI, P<0.05
Protocol: Three sets of experiments were performed. The first set was to investigate the protective effects of salidroside. All animals were randomized into 1 of 3 groups (sham injury, CCI + vehicle, CCI + SALD 20). Surgery/injury, behavioral testing, and tissue analyses were performed by different individuals. Behavioral testing and tissue analyses were performed by individuals blinded to the treatment group. Salidroside (Cayman Chemical, Ann Arbor, MI, USA) dissolved in normal saline (0.25 mL) or a corresponding volume of vehicle (saline) was administered intraperitoneally 10 min following injury. Testing after injury was completed as follows: 1) behavioral testing at days 1, 4, 7, 14, 21, and 28 (n = 8–10 mice/group); 2) cresyl violet staining at day 28 (n = 9 mice/group); 3) histology, determination of brain water content, and western blot analysis at day 1 or 3 (n = 5–6 mice/group). To determine the optimal dose of salidroside, a pilot study was performed using 2 different doses (20 and 50 mg/kg) administered 10 min after injury, and neurological deficits and tissue damage were evaluated as the main outcomes. […] The second set of experiment was to assess the effect of the inhibition of PI3K/Akt with the specific PI3K inhibitor, LY294002 (Cell Signaling Technology, Danvers, MA, USA), on salidroside effects. Animals were randomized into 4 groups. Mice received either: 1) icv pretreatment of LY294002 followed by SALD 20 after CCI (S20Y group); or 2) icv pretreatment of saline (vehicle control) followed by SALD 20 after CCI (S20V group). 3) Mice were infused icv with saline and were subjected to sham injury. 4) Mice were infused icv with LY294002 and were subjected to sham injury. […] Protein concentration was determined by Bradford reagent spectrophotometrically at A595. […] The relative intensity of protein signals was normalized to the corresponding β-actin intensity and was quantified by densitometric analysis with the use of Image J software.

[1] = test system: mice subjected to controlled cortical impact injury; assay: Contusion volume, cresyl violet staining; type: in vivo; details: day 28; for contusion volume: vehicle 13.5±4.0
Protocol: All animal procedures were approved by the Animal Research Committee at Cheng Hsin General Hospital (Animal permit number […] 101-08), and all procedures complied with the Guide for the Care and Use of Laboratory Animals published by the US National Institutes of Health (NIH Publication No. 85-23, revised 1996). Animals were housed under a 12-h light/dark cycle and at constant temperature (21-25°C) and humidity (45-50%). They were allowed free access to pellet chow and water. TBI in mice was induced by a CCI injury model as previously described. Briefly, 8-week-old male C57BL/6 mice (weighing 22-25 g) were anesthetized through the use of intraperitoneal injection of sodium pentobarbital (65 mg/kg; Rhone Merieux, Harlow, UK) and placed in a stereotaxic frame. A 5 mm craniotomy was performed over the right parietal cortex, centered on the coronal suture and 0.1 mm lateral to the sagittal suture, and injury to dura was avoided. Injury was induced using a pneumatic piston with a rounded metal tip (2.5 mm diameter) that was angled 22.5° to the vertical so that the tip was perpendicular with the brain surface at the center of the craniotomy. The impact, with a velocity of […] and a deformation depth of 2 mm below the dura, was applied. The bone flap was immediately replaced and sealed, and the scalp was sutured. Body temperature was monitored throughout the surgery by a rectal probe; temperature was maintained at 37.0±0.5°C using a heated pad. Mice were placed in a heated cage to maintain body temperature, while recovering from anesthesia. Sham-operated mice underwent the same procedure as injured mice, but without CCI. Three sets of experiments were performed. The first set was to investigate the protective effects of salidroside. All animals were randomized into 1 of 3 groups (sham injury, CCI + vehicle, CCI + SALD 20). […] To determine the optimal dose of salidroside, a pilot study was performed using 2 different doses (20 and 50 mg/kg) administered 10 min after injury, and neurological deficits and tissue damage were evaluated as the main outcomes. […]

[2] = set-up: method as in PMID 17631426; details: rats, cited from earlier work

OC[C@H]1O[C@@H](OCCc2ccc(O)cc2)[C@H](O)[C@@H](O)[C@@H]1O [SALD, salidroside]
decrease of cleaved caspase-3 level versus vehicle (cleaved caspase-3; day 1): 49.6% | decrease of cleaved caspase-3 level versus vehicle (cleaved caspase-3; day 3): 34.9% | reduction of cleaved caspase-3 level (cleaved caspase-3; 20 mg/kg ip 3 h after injury, day 1): 34.1% | contusion volume as % of the vehicle group ([1]; 20 mg/kg ip 10 min after CCI): 73.8% | contusion volume ([1]; 20 mg/kg ip 10 min after CCI, P<0.05): 9.9±1.1 mm^3 | contusion volume ([1]; 50 mg/kg ip 10 min after CCI, P>0.05): 11.7±3.2 mm^3 | mean elimination half-life (t1/2) ([2]; intravenous administration): around 0.5 h | mean elimination half-life (t1/2) ([2]; oral administration): ~1.1 h
